Data on 25 molecules can be found in patent US20230416205A1, “COMPOUNDS, COMPOSITIONS, AND METHODS” (Denali Therapeutics Inc, priority 2020, published 2023).

The subject of the test is NLRP3. The test is described as follows: IL-1β secretion assay in PMA-differentiated, LPS/nigericin-stimulated THP-1 cells (384-well, ELISA read-out). The conditions noted are these: Homo sapiens. In kind it is cell-based, human. In a few lines:
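THP-1 cells differentiated with PMA (5 ng/mL, 40 h), primed in serum-free medium with 25 ng/mL LPS for 2 h, treated with compounds 1 h (0.5% DMSO), then stimulated with nigericin for 2 h at 37 °C. Supernatant IL-1β measured by ELISA; responses normalized to LPS+5 μM nigericin and LPS-only controls.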

The mark [1] stands for this setting: THP-1, IL-1β secretion, PMA-differentiated THP-1 cells, LPS then nigericin stimulation, ELISA read at 450 nm, read-out: Activity.
The mark [2] stands for this setting: THP-1, Table 4, IL-1β secretion, LPS/nigericin-stimulated THP-1 cells, read-out: IC50.

Like-named read-outs stand apart in the source and are kept apart here. Bounds are passed on as bounds.

Take `O=C(CN1CC2(CC2)c2cc(Br)ccc2C1=O)Nc1ccc2cnccc2n1` [Example 206, 2-(6-bromo-1-oxospiro[3H-isoquinoline-4,1′-cyclopropane]-2-yl)-N-(1,6-naphthyridin-2-yl)acetamide]: the IC50 runs as follows: under setting [1], under 10000 nM; under setting [2], 1260 nM.

Regarding `N#Cc1ccc2nc(NC(=O)CN3CC4(CC4)c4cc(Br)ccc4C3=O)oc2c1` [Example 207, 2-(6-bromo-1-oxospiro[3H-isoquinoline-4,1′-cyclopropane]-2-yl)-N-(6-cyano-1,3-benzoxazol-2-yl)acetamide], the IC50 reads like this: under setting [1], under 10000 nM; under setting [2], 487 nM.

Take `O=C(CN1CC2(CC2)c2cc(Br)ccc2C1=O)Nc1ccc(F)cn1` [Example 208, 2-(6-bromo-1-oxospiro[3H-isoquinoline-4,1′-cyclopropane]-2-yl)-N-(5-fluoropyridin-2-yl)acetamide]: the IC50 was under 10000 nM under setting [1] and 709 nM under setting [2].

With `O=C(CN1CC2(CC2)c2cc(Br)ccc2C1=O)Nc1nc2ncccc2o1` [Example 209, 2-(6-bromo-1-oxo-spiro[3H-isoquinoline-4,1′-cyclopropane]-2-yl)-N-oxazolo[4,5-b]pyridin-2-yl-acetamide], the IC50 was under 10000 nM under setting [1] and 3560 nM under setting [2].

`O=C(CN1CC2(CC2)c2cc(Br)ccc2C1=O)Nc1nc2cnccc2o1` [Example 210, 2-(6-bromo-1-oxo-spiro[3H-isoquinoline-4,1′-cyclopropane]-2-yl)-N-oxazolo[4,5-c]pyridin-2-yl-acetamide]: the IC50 is under 10000 nM under setting [1] and 822 nM under setting [2].

As for `O=C(CN1CC2(CC2)c2cc(Br)ccc2C1=O)Nc1nc2cccnc2o1` [Example 211, 2-(6-bromo-1-oxo-spiro[3H-isoquinoline-4,1′-cyclopropane]-2-yl)-N-oxazolo[5,4-b]pyridin-2-yl-acetamide], the IC50 is under 10000 nM under setting [1] and 1180 nM under setting [2].

Take `O=C(CN1CC2(CC2)c2cc(Br)ccc2C1=O)Nc1nc2ccncc2o1` [Example 212, 2-(6-bromo-1-oxo-spiro[3H-isoquinoline-4,1′-cyclopropane]-2-yl)-N-oxazolo[5,4-c]pyridin-2-yl-acetamide]: the IC50 is, setting by setting: under setting [1], under 10000 nM; under setting [2], 589 nM.

In the case of `O=C(CN1CC2(CC2)c2cc(Br)ccc2C1=O)Nc1ncc2c(n1)COC2` [Example 213, 2-(6-bromo-1-oxospiro[3H-isoquinoline-4,1′-cyclopropane]-2-yl)-N-(5,7-dihydrofuro[3,4-d]pyrimidin-2-yl)acetamide], the IC50 under setting [1] was under 10000 nM and the IC50 under setting [2] was determined as 1340 nM.

As to `O=C(CN1CC2(CC2)c2cc(Br)ccc2C1=O)Nc1nccc(=O)[nH]1` [Example 214, 2-(6-bromo-1-oxospiro[3H-isoquinoline-4,1′-cyclopropane]-2-yl)-N-(6-oxo-1H-pyrimidin-2-yl)acetamide], the IC50 reads like this: under setting [1], under 10000 nM; under setting [2], 7500 nM.

Take `O=C(CN1CC2(CC2)c2cc(F)ccc2C1=O)Nc1ncc(F)cn1` [Example 215, 2-(6-fluoro-1-oxospiro[3H-isoquinoline-4,1′-cyclopropane]-2-yl)-N-(5-fluoropyrimidin-2-yl)acetamide]: the IC50 is under 10000 nM under setting [1] and 6860 nM under setting [2].

With `Cc1cc(NC(=O)CN2CC3(CC3)c3cc(Br)ccc3C2=O)nc(C)n1` [Example 216, 2-(6-bromo-1-oxospiro[3H-isoquinoline-4,1′-cyclopropane]-2-yl)-N-(2,6-dimethylpyrimidin-4-yl)acetamide], the IC50 is under 10000 nM under setting [1] and 3980 nM under setting [2].

As to `Cc1cnc(NC(=O)CN2CC3(CC3)c3cc(Br)ccc3C2=O)nc1C` [Example 217, 2-(6-bromo-1-oxospiro[3H-isoquinoline-4,1′-cyclopropane]-2-yl)-N-(4,5-dimethylpyrimidin-2-yl)acetamide], the IC50 is under 10000 nM under setting [1] and 862 nM under setting [2].

In the case of `Cn1ncnc1NC(=O)CN1CC2(CC2)c2cc(Br)ccc2C1=O` [Example 218, 2-(6-bromo-1-oxospiro[3H-isoquinoline-4,1′-cyclopropane]-2-yl)-N-(2-methyl-1,2,4-triazol-3-yl)acetamide], the IC50 runs as follows: under setting [1], under 10000 nM; under setting [2], 9180 nM.

`N#Cc1ccc2oc(NC(=O)CN3CC4(CC4)c4cc(Br)ccc4C3=O)nc2c1` [Example 219, 2-(6-bromo-1-oxospiro[3H-isoquinoline-4,1′-cyclopropane]-2-yl)-N-(5-cyano-1,3-benzoxazol-2-yl)acetamide]: the IC50 runs as follows: under setting [1], under 10000 nM; under setting [2], 1620 nM.

On to `N#Cc1cnc(NC(=O)CN2C[C@@]3(C[C@@H]3F)c3c(ccc(C4CC4)c3F)C2=O)nc1` [Example 230, 2-[(2′s,4r)-6-cyclopropyl-2′,5-difluoro-1-oxospiro[3H-isoquinoline-4,1′-cyclopropane]-2-yl]-N-(5-cyanopyrimidin-2-yl)acetamide], for which the IC50 was under 10000 nM under setting [1] and 51 nM under setting [2].

Consider `O=C(CN1C[C@]2(C[C@H]2F)c2cc(C3CC3)ccc2C1=O)Nc1ncc(F)cn1` [Example 231], for which the IC50 is under 10000 nM under setting [1] and 50 nM under setting [2].

As to `O=C(CN1C[C@]2(C[C@H]2F)c2cc(C3CC3)ccc2C1=O)Nc1ncc(Cl)cn1` [Example 232], the IC50 was under 10000 nM under setting [1] and 28 nM under setting [2].

`N#Cc1cnc(NC(=O)CN2C[C@]3(C[C@H]3F)c3cc(C4CC4)ccc3C2=O)nc1` [Example 233]: the IC50 reads like this: under setting [1], under 10000 nM; under setting [2], 45 nM.

Regarding `O=C(CN1C[C@]2(C[C@H]2F)c2cc(I)ccc2C1=O)Nc1ncc(F)cn1` [Example 246], the IC50 under setting [1] was under 10000 nM and the IC50 under setting [2] worked out at 6 nM.

For `O=C(CN1C[C@]2(C[C@H]2F)c2cc(I)ccc2C1=O)Nc1ncccn1` [Example 247], the IC50 by setting is: under setting [1], under 10000 nM; under setting [2], 10 nM.

Regarding `O=C(CN1C[C@]2(C[C@H]2F)c2cc(C3(F)CC3)ccc2C1=O)Nc1ncc(F)cn1` [Example 249], the IC50 was under 10000 nM under setting [1] and 15 nM under setting [2].

In the case of `O=C(CN1C[C@]2(C[C@H]2F)c2cc(C3(F)CC3)ccc2C1=O)Nc1ncc(Cl)cn1` [Example 250], the IC50 is, setting by setting: under setting [1], under 10000 nM; under setting [2], 14 nM.

Consider `O=C(CN1CC2(CC2)c2cc(C3(F)CC3)ccc2C1=O)Nc1ncc(F)cn1` [Example 255, 2-[6-(1-fluorocyclopropyl)-1-oxospiro[3H-isoquinoline-4,1′-cyclopropane]-2-yl]-N-(5-fluoropyrimidin-2-yl)acetamide], for which the IC50 runs as follows: under setting [1], under 10000 nM; under setting [2], 148 nM.

On to `O=C(CN1CC2(CC2)c2cc(Br)ccc2C1=O)Nc1ncc(C2CCC2)cn1` [Example 256, 2-(6-bromo-1-oxospiro[3H-isoquinoline-4,1′-cyclopropane]-2-yl)-N-(5-cyclobutylpyrimidin-2-yl)acetamide], for which the IC50 is, setting by setting: under setting [1], under 10000 nM; under setting [2], 395 nM.

`Cn1cc(-c2cnc(NC(=O)CN3CC4(CC4)c4cc(Br)ccc4C3=O)nc2)cn1` [Example 257, 2-(6-bromo-1-oxospiro[3H-isoquinoline-4,1′-cyclopropane]-2-yl)-N-[5-(1-methylpyrazol-4-yl)pyrimidin-2-yl]acetamide]: the IC50 is, setting by setting: under setting [1], under 10000 nM; under setting [2], 392 nM.
